From patent EP4656178A1, “COSMETIC USE OF ATRACTYLODES LANCEA ROOT EXTRACT” (Provital, S.A., priority 2024, dated 2025)

Assays:
Assay type in all cases: cell-based
[1] = system: reconstructed human pigmented epidermis (RHPE); experiment: Depigmentation test: melanin quantification by imaging; conditions: daily application day 9 to day 17, in comparison with Control, read-out: melanin reduction
Procedure: The depigmenting potential of the ALRE was assessed on reconstructed human pigmented epidermis (RHPE). Said cells were specifically generated for screening depigmenting agents or skin lightening products prior to human in vivo testing, as disclosed in Hall et al., Reconstructed human pigmented skin/epidermis models achieve epidermal pigmentation through melanocore transfer, Pigment Cell Melanoma Res., 2022, 35, 425-435. On day 9, the medium was replaced with a daily renewal, incorporating test compounds: the ALRE at concentrations of 0.2, 0.1, and 0.05 mg/ml, comparing its effect with 10 µM Retinol. In this assessment, […] DMSO was used as a negative control and 250 µM Kojic acid as a positive control. Images for melanin evaluation were captured on day 17 using Leica EZ4 W stereo microscope (Leica Microsystems, Wetzlar, Germany) and quantified as follows: all imaging processing steps were performed with the imaging software Fiji/lmageJ v 1.52n (Schindelin et al., Fiji - an Open Source platform for biological image analysis, Nat. Methods, 2012, 9(7), doi:10-1038). […] Statistical differences were determined by two-way ANOVA using R version 4.3.2 (R: A Language and Environment for Statistical Computing, n.d.). […]

human TRPV1 channel = target: T1, human TRPV1 channel (Homo sapiens, UniProt Q8NER1); experiment: TRPV1 irritation test: intracellular calcium influx (Fluo4-NW) in TRPV1-overexpressing HEK cells; conditions: 1-hour incubation, normalized to 1 µM capsaicin (100%) and assay buffer (0%)
T1 construct: expressed in transfected cells
T1 sequence (Q8NER1 whole entry): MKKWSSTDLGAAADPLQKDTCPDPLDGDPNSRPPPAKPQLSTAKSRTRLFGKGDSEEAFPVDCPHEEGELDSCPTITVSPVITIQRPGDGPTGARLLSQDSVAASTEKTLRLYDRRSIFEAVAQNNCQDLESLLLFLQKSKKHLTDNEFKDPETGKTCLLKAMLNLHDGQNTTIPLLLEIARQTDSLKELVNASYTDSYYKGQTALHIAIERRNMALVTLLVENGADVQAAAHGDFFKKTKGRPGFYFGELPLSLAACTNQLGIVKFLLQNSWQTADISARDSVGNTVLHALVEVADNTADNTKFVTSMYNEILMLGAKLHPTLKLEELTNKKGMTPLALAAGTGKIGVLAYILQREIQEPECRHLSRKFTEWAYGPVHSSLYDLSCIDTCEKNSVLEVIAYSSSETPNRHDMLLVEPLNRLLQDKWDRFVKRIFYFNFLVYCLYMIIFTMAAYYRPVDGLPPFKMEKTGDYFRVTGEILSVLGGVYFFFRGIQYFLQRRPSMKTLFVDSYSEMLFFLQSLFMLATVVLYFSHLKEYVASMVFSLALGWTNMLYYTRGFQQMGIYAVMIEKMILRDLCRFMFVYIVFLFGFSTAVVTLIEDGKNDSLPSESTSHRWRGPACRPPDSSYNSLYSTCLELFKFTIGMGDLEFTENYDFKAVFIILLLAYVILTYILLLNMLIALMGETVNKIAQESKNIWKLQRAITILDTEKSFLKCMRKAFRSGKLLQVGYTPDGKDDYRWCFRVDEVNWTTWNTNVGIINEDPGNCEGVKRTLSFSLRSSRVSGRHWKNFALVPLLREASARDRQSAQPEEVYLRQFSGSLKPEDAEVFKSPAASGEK
Excerpt: In this TRPV1 test, compositions comprising different amounts of the A. lancea root extract (ALRE) were compared with retinol and tested on Human Embryonic Kidney (HEK) cells stably expressing this TRPV1 channel.
Cytosolic calcium influx was monitored using Fluo4-NW (Thermo Fisher Scientific) mix dye following manufacturer's instructions.
Activation of the TRPV1 receptor causes a Ca^+2 influx, and a direct relationship between fluorescence and TRPV1 receptor response can be established.
Fluorescence signal (AFU) was measured after excitation at 485 nm and emission at 520 nm using ClarioStar Plus microplate reader from BMG LABTECH.
The effect of tested compounds on intracellular Ca^+2 influx was studied 48 hours after cell seeding. The medium of TRPV1-overexpressing HEK cells was replaced by 90 µL/well of Fluo4-NW dye solution in assay buffer containing probenecid. […]
After 1 hour incubation at 37 °C, the plate was kept for 15 minutes at room temperature inside the fluorescence plate reader. After that, the program started with a stop in cycle 3 to add test compounds and capsazepine, 0.2% Triton X-100 (maximal signal control for dye loading) and assay buffer (minimal signal) and the fluorescence signal was recorded for 7 additional cycles. […] The signal was recorded until cycle 20. […]

Human Dermal Fibroblasts = conditions: 6 h, 10 µM retinol or 0.05 mg/ml ALRE
Procedure: To better understand the cellular pathways and processes that were modulated by the ALRE in human dermal fibroblasts, and its relevance with respect to retinol, a comprehensive and comparative assessment of gene expression by transcriptome analysis was conducted.
Three biological triplicates of Human Dermal Fibroblasts (HDF; ZenBio Inc., Research Triangle Park, NC, USA) were stimulated for 6 h with either 10 µM retinol or 0.05 mg/ml ALRE. RNA was extracted with the TRIzol® Plus RNA Purification Kit, including DNase I treatment step, according to manufacturer's instructions. RNA quality and quantity were inspected by spectrophotometric measurement using a NanoDrop™ One spectrophotometer (Thermo Fisher Scientific, Pittsburgh, PA, USA).
Messenger RNA was purified from total RNA using poly-T oligo-attached magnetic beads. After fragmentation, the first strand cDNA was synthesized using random hexamer primers, followed by the second strand cDNA synthesis using either dUTP for directional library or dTTP for non-directional library. For the non-directional library, it was ready after end repair, A-tailing, adapter ligation, size selection, amplification, and purification. For the directional library, it was ready after end repair, A-tailing, adapter ligation, size selection, USER enzyme digestion, amplification, and purification . The library was checked with Qubit and real-time PCR for quantification and bioanalyzer for size distribution detection. Quantified libraries were pooled and sequenced (Paired-end 150 bp) on Illumina platforms, according to effective library concentration and data amount.
Obtained data were studied by bioinformatic analysis as disclosed, for example, in Liao et al, featureCounts: an efficient general purpose program for assigning sequence reads to genomic features, Bioinformatics, 2014 ,30(7), 923-30, Mortazavi et al., Mapping and quantifying mammalian transcriptomes by RNA-Seq, Nature Methods, 2008, 5(7), 621-628, and Robinson et al., edgeR: a Bioconductor package for differential expression analysis of digital gene expression data, Bioinformatics, 2010, 26(1), 139-140.
Genes involved in the following categories were studied: • 2.1.- Retinoid binding, metabolizing genes and lipid transport • 2.2.- Extracellular matrix • 2.3.- Inflammatory pathway

[2] = vs non-treated human fibroblast

Row | Structure (SMILES) | inhibition at 250 µM ([1]; 250 µM kojic acid) [%] | intracellular calcium increase (human TRPV1 channel; retinol 50 µM) | intracellular calcium increase (human TRPV1 channel; retinol 100 µM) | MMP1 gene expression (Human Dermal Fibroblasts; [2]) | MMP12 gene expression (Human Dermal Fibroblasts; [2]) | TIMP1 gene expression (Human Dermal Fibroblasts; [2]) | TIMP3 gene expression (Human Dermal Fibroblasts; [2]) | gene expression associated with crucial ECM proteins (Human Dermal Fibroblasts; vs non-treated human fibroblast (100%)) | inhibition at 10 µM ([1]; 10 µM retinol) [%]
1 | O=c1cc(CO)occ1O [kojic acid] | 58 | – | – | – | – | – | – | – | –
2 | CC1=C(/C=C/C(C)=C/C=C/C(C)=C/CO)C(C)(C)CCC1 [retinol] | – | significant rise | significant rise | elevation | elevation | significantly upregulated | significantly upregulated | comparable modulation of gene expression | 76
